From patent publication US3959311A, “Oxotremorine antagonists” (priority 1967, dated 1976)
Read-outs that look alike come from different tables or passages of the source.

Assays:
[1] = tested on: oxotremorine tremor response; assay: Oxotremorine antagonism: affinity constant from shift of median effective tremor dose of oxotremorine (Dixon up-and-down method); assay type: in vivo, mice; details: AL-301 set equal to 1.0
Procedure: It was tested in the following manner:
Four or more groups, each containing six female mice weighing 22 to 26 grams, were selected. To establish a control, each member of the first group was dosed in sequence with oxotremorine in the absence of any test compound.
In the Dixon method the first animal is treated at an arbitrarily selected level and the presence or absence of tremor response is noted. An increased or decreased dosage is then selected according to the schedule specified by the Dixon procedure for the second animal which would tend to produce a change in the tremor response.
For each test group, the increased median effective dose of oxotremorine was determined in the same manner.
To compare the potency of the test compound the affinity constant was obtained from the data. The affinity constant is that concentration of test compound which when administered blocks the oxotremorine response so that twice the concentration of oxotremorine is necessary to evoke the same response as was produced in the absence of the test compound.

[2] = tested on: tremoromimetic effects of oxotremorine; assay type: in vivo, mice
Source text: (§1) This "tremorolytic" dose is designated as T. As a standard for the peripheral effect the dose of the compound in mg/kg, which doubles the diameter of the pupil, is given. This "mydriatic" dose is designated as M. The ratio between M and T will constitute a standard for specific central effect of the substance. A higher value for M/T corresponds to a higher specificity.

diameter of the pupil = assay: animal or person; assay type: in vivo, mice; details: Mus musculus
Source text: as §1

[3] = tested on: oxotremorine-induced tremor; details: cited from earlier work
[4] = mydriatic dose / tremorolytic dose, higher value = higher specificity
[5] = dose which doubles the diameter of the pupil, mice, read-out: Mydriatic Dose

OC(CCN1CCCCC1)(c1ccccc1)C1CCCCC1 (stereo not drawn) [Artane, α-cyclohexyl-α-phenyl-1-piperidine-propanol, reference compound]
Ratio of affinity constant dosages (relative potency) [1]: 1.8

CC(C#CCN1CCCCCC1)N1CCCC1=O (stereo not shown) [N-(1-methyl-4-perhydroazepino-2-butynyl)-pyrrolidin-2-one]
Tremorolytic Dose (T) ([2]; mouse, in vivo, iv): 0.32 mg/kg
M/T ratio (specific central effect) [2, 4]: 6.25
Ratio of affinity constant dosages (relative potency) [1]: 9.0
ED (doubling of pupil diameter) (diameter of the pupil; [5]): 2 mg/kg

CC(C#CCN1CCCCC1)N1CCCC1=O (stereo not shown) [N-(1-methyl-4-piperidino-2-butynyl)-pyrrolidin-2-one]
Ratio of affinity constant dosages (relative potency) [1]: 8.5

CC(C#CCN1CCCC1)N1CCCC1=O (stereo not shown) [N-(1-methyl-4-pyrrolidino-2-butynyl)-pyrrolidin-2-one]
Tremorolytic Dose (T) ([2]; dose which inhibits the effect of 150 μg/kg of oxotremorine i.v., mice): 0.19 mg/kg
M/T ratio (specific central effect) [2, 4]: 3.26
Ratio of affinity constant dosages (relative potency) [1]: 17.0
Ratio of affinity constant dosages (relative potency) ([1]; listed as n = 4): 17
ED (doubling of pupil diameter) (diameter of the pupil; read-out: Mydriatic Dose (M)): 0.62 mg/kg

CN1[C@@H]2CC[C@H]1C[C@@H](OC(=O)C(CO)c1ccccc1)C2 (stereo partly shown) [atropine]
antagonism of oxotremorine-induced tremor ([3]; in words): antagonize the oxotremorine-induced tremor
side effect: antagonism of peripheral cholinergic effects of oxotremorine ([3]; in words): antagonizing the peripheral cholinergic effects of oxotremorine

OC(CCN1CCCCC1)(c1ccccc1)C1CCCCC1 (stereo not shown) [benzhexol, reference compound]
M/T ratio (specific central effect) ([2]; mouse, in vivo): 0.21
Tremorolytic Dose (T) ([2]; mouse, in vivo, iv): 5.5
ED (doubling of pupil diameter) (diameter of the pupil; [5]): 1.15 mg/kg

CCN(CC)CCOC(=O)C1(c2ccccc2)CCCC1 [caramiphen, 1-phenylcyclopentanecarboxylic acid 2-diethylaminoethyl ester]
side effect: antagonism of peripheral cholinergic effects of oxotremorine ([3]; in vivo): antagonizing the peripheral cholinergic effects of oxotremorine
antagonism of oxotremorine-induced tremor ([3]; in words): antagonize the oxotremorine-induced tremor

O=C1CCCN1CC#CCN1CCCC1 [oxotremorine, N-(4-pyrrolidino-2-butynyl)-pyrrolidin-2-one]
effects of oxotremorine ([3]; immediately after injection by intravenous routes, several species of laboratory animals): induces violent generalized tremors, spasticity, hypokinesia and parasympathomimetic effects
